According to ChEMBL document CHEMBL1136512, “Discovery of a novel series of 6-azauracil-based thyroid hormone receptor ligands: potent, TR beta subtype-selective thyromimetics” (Bioorg Med Chem Lett, 2003):
pEC50, pKi: −log10 of the molar value.

Target: T1, Thyroid hormone receptor beta (Homo sapiens, UniProt P10828)
T1 sequence (P10828 whole entry): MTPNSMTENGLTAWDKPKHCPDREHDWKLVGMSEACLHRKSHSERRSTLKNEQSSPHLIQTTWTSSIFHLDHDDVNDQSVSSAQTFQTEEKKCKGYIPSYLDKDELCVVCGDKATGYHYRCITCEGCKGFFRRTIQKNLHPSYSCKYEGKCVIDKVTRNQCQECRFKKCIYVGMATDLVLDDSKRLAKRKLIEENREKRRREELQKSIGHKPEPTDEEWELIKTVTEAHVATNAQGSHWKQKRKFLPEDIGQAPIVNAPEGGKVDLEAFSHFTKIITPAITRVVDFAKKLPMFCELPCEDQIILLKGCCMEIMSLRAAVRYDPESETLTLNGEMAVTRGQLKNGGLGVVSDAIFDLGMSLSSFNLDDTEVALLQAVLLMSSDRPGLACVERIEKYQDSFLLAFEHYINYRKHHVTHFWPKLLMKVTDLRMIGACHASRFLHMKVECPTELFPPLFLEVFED

**Q.** With `O=c1cnn(-c2cc(Cl)c(Oc3ccc(O)c(S(=O)(=O)n4ccc5ccccc54)c3)c(Cl)c2)c(=O)[nH]1` as the compound, how does the pKi read?
**A.** 9.64

**Q.** `O=c1cnn(-c2cc(Cl)c(Oc3ccc(O)c(S(=O)(=O)NC4CCCCC4)c3)c(Cl)c2)c(=O)[nH]1` was tested. Which pKi did it give?
**A.** 9.34

**Q.** `Cc1cc(-n2ncc(=O)[nH]c2=O)cc(Cl)c1Oc1ccc(O)c(S(=O)(=O)N2CCN(C)CC2)c1` was tested. Which pKi did it give?
**A.** 7.89

**Q.** `O=c1cnn(-c2cc(Cl)c(Oc3ccc(O)c(S(=O)(=O)N4C5CCC4CC4(CCCO4)C5)c3)c(Cl)c2)c(=O)[nH]1` (stereo unspecified) was tested. Which pKi did it give?
**A.** 9.55

**Q.** `CC1(C)C2CCC(NC(=O)c3cc(Oc4c(Cl)cc(-n5ncc(=O)[nH]c5=O)cc4Cl)ccc3O)C1C2` (stereo in doubt; 9i) was tested. Which pKi did it give?
**A.** 10.22

**Q.** `O=C(NC1CCCCC1)c1cc(Oc2c(Cl)cc(-n3ncc(=O)[nH]c3=O)cc2Cl)ccc1O` was tested. Which pKi did it give?
**A.** 10.15

**Q.** How did the pKi turn out when `CC1(C)C2CCC(NC(=O)c3cc(Oc4c(Cl)cc(-n5ncc(=O)[nH]c5=O)cc4Cl)ccc3O)C1C2` (stereo in doubt; 9j) was run?
**A.** 10.40

**Q.** How did the pKi turn out when `CSc1ccc(Oc2c(C)cc(-n3ncc(=O)[nH]c3=O)cc2C)cc1C` was run?
**A.** 8.70

**Q.** With `O=C(c1cc(Oc2c(Cl)cc(-n3ncc(=O)[nH]c3=O)cc2Cl)ccc1O)N1CCCCC1` as the compound, how does the pKi read?
**A.** 9.20

**Q.** `O=C(NC1CCC1)c1cc(Oc2c(Cl)cc(-n3ncc(=O)[nH]c3=O)cc2Cl)ccc1O` was tested. Which pKi did it give?
**A.** 9.19

**Q.** How did the pKi turn out when `O=c1cnn(-c2cc(Cl)c(Oc3ccc(O)c(S(=O)(=O)NC4CCC4)c3)c(Cl)c2)c(=O)[nH]1` was run?
**A.** 9.40

**Q.** With `O=C(c1cc(Oc2c(Cl)cc(-n3ncc(=O)[nH]c3=O)cc2Cl)ccc1O)N1CC2CCC1C2` (racemic; endo) as the compound, how does the pKi read?
**A.** 9.80

**Q.** How did the pKi turn out when `O=c1cnn(-c2cc(Cl)c(Oc3ccc(O)c(S(=O)(=O)N4C5CCC4CC4(C5)OCCO4)c3)c(Cl)c2)c(=O)[nH]1` was run?
**A.** 9.51

**Q.** How did the pKi turn out when `O=c1cnn(-c2cc(Cl)c(Oc3ccc(O)c(S(=O)(=O)N4CCCCC4)c3)c(Cl)c2)c(=O)[nH]1` was run?
**A.** 10.70

**Q.** With `O=C(c1cc(Oc2c(Cl)cc(-n3ncc(=O)[nH]c3=O)cc2Cl)ccc1O)N1CCOCC1` as the compound, how does the pKi read?
**A.** 9.14

**Q.** With `Cc1cc(N2CCCNC2=O)cc(C)c1Oc1ccc(O)c(C(C)C)c1` as the compound, how does the pKi read?
**A.** 5.00

**Q.** `Cc1cc(-n2ncc(=O)[nH]c2=O)cc(Cl)c1Oc1ccc(O)c(S(=O)(=O)N2CCCCC2)c1` was tested. Which pKi did it give?
**A.** 9.89

**Q.** How did the pKi turn out when `O=C(c1cc(Oc2c(Cl)cc(-n3ncc(=O)[nH]c3=O)cc2Cl)ccc1O)N1CC2CCC1C2` (stereo in doubt; 9h (R)-(+)) was run?
**A.** 9.43

**Q.** `O=C(c1cc(Oc2c(Cl)cc(-n3ncc(=O)[nH]c3=O)cc2Cl)ccc1O)N1CC2CCC1C2` (racemic; exo) was tested. Which pKi did it give?
**A.** 9.23

**Q.** With `O=c1cnn(-c2cc(Cl)c(Oc3ccc(O)c(S(=O)(=O)Nc4ccccc4)c3)c(Cl)c2)c(=O)[nH]1` as the compound, how does the pKi read?
**A.** 10.00

**Q.** With `Cc1cc(-n2ncc(=O)[nH]c2=O)cc(C)c1Oc1ccc(O)c(S(=O)(=O)N2CCCCC2)c1` as the compound, how does the pKi read?
**A.** 9.34

**Q.** How did the pKi turn out when `Cc1cc(-n2ncc(=O)[nH]c2=O)cc(Cl)c1Oc1ccc(O)c(S(=O)(=O)N2CCOCC2)c1` was run?
**A.** 7.57

**Q.** How did the pKi turn out when `Cc1cc(-n2ncc(=O)[nH]c2=O)cc(Cl)c1Oc1ccc(O)c(C(=O)N2CCCCC2)c1` was run?
**A.** 8.72

Target: T2, Thyroid hormone receptor alpha (Homo sapiens, UniProt P10827)
T2 sequence (P10827 whole entry): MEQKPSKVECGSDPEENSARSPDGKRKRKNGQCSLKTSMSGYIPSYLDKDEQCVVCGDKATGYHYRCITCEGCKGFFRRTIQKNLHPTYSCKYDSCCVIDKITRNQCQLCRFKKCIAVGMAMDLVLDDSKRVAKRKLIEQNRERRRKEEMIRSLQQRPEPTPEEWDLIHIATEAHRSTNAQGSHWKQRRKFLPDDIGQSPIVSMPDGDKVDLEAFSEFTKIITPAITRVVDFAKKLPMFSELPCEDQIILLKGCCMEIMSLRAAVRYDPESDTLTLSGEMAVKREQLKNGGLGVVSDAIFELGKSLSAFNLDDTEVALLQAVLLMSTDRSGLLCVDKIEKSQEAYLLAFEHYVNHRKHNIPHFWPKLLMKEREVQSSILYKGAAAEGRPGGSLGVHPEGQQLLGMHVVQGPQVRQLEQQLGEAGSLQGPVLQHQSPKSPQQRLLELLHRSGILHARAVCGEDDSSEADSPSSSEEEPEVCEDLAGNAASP
Description: Effective concentration binding towards TRalpha in E25B2 cells (agonistic activity)

**Q.** With `O=c1cnn(-c2cc(Cl)c(Oc3ccc(O)c(S(=O)(=O)N4C5CCC4CC4(CCCO4)C5)c3)c(Cl)c2)c(=O)[nH]1` (stereo unspecified) as the compound, how does the pEC50 read?
**A.** 5.82

**Q.** How did the pEC50 turn out when `CC1(C)C2CCC(NC(=O)c3cc(Oc4c(Cl)cc(-n5ncc(=O)[nH]c5=O)cc4Cl)ccc3O)C1C2` (stereo in doubt; 9i) was run?
**A.** 7.92

Target: T1, Thyroid hormone receptor beta
Assay: Effective concentration binding towards TR-beta-1 in E25B2 cells (agonistic activity)

**Q.** With `O=c1cnn(-c2cc(Cl)c(Oc3ccc(O)c(S(=O)(=O)N4C5CCC4CC4(CCCO4)C5)c3)c(Cl)c2)c(=O)[nH]1` (stereo unspecified) as the compound, how does the pEC50 read?
**A.** 7.21
